The values that follow come from patent US8450315B2, “Phosphoinositide 3-kinase inhibitor compounds and methods of use” (Genentech, Inc., priority 2006, dated 2013).

What all share (type): biochemical
The target of experiment [1] is human PI3K isoform beta (p110 beta) (Homo sapiens, UniProt P42338). In words: p110 isoform selectivity scintillation proximity assay (SPA), beta isoform. As to conditions: fold potency over beta relative to alpha, calculated from IC50 values (SPA). On the procedure: (§1) Binding of Formula Ia and Ib compounds from Tables 1a and 1b to purified preparations of p110 isoforms alpha, beta, delta, and gamma was measured by a Scintillation Proximity Assay (SPA) to determine binding activity (IC50 μMol) and selectivity of binding of beta, delta, and gamma isoforms relative to alpha (Example 365). These values are expressed in Table 2.
human PI3K isoform beta (p110 beta), sequence (P42338 whole entry, canonical isoform): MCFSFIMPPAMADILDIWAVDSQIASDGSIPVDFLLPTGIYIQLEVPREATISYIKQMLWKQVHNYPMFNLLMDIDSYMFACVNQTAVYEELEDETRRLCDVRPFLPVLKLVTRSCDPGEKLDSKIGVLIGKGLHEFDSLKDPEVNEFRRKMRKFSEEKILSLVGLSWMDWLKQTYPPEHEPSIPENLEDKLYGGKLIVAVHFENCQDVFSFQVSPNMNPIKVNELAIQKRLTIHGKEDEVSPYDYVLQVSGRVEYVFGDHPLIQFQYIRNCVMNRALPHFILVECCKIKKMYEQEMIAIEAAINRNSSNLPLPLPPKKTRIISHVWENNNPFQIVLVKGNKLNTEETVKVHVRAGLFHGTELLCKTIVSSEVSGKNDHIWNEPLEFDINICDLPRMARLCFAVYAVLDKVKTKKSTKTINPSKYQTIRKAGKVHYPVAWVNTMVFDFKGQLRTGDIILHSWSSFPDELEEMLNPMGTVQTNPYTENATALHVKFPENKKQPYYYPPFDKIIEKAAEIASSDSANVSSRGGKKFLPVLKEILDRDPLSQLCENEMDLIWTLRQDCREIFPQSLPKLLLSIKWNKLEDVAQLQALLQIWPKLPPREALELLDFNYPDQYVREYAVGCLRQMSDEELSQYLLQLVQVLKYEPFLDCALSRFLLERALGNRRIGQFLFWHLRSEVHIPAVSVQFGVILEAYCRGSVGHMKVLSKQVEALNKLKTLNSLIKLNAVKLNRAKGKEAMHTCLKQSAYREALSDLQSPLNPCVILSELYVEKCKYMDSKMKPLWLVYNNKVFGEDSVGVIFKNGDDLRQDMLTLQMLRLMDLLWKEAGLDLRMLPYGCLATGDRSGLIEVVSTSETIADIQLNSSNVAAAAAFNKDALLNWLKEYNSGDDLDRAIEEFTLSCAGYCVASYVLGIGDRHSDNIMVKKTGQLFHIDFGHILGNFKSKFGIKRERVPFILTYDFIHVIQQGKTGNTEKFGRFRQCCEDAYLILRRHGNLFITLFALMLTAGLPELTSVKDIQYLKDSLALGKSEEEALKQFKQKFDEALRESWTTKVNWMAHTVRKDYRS
human PI3K isoform beta (p110 beta), sequence (P27986 whole entry partner, canonical isoform): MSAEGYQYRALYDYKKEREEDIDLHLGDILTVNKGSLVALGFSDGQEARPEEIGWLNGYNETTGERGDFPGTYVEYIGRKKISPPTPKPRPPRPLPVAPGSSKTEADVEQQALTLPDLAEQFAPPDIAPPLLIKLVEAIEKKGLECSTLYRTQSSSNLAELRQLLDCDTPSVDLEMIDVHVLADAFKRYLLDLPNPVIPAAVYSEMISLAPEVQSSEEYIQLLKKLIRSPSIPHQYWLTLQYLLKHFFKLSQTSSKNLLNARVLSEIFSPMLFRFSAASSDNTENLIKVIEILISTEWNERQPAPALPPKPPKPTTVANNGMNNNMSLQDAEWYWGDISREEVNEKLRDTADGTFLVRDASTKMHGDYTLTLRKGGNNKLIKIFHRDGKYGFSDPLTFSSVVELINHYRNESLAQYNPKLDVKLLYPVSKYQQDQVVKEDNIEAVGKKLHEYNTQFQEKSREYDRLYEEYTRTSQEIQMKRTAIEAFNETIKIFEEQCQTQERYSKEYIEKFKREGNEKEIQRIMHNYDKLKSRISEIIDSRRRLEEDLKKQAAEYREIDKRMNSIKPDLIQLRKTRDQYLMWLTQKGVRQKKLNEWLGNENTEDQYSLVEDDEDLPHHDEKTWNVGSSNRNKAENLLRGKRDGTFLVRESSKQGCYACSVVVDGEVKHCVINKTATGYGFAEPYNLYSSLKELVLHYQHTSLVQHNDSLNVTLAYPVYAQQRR
(§2) The ability of Formula Ia and Ib compounds from Tables 1a and 1b to inhibit the lipid kinase activity of purified preparations of human PI3K isoforms alpha, beta, delta, and gamma was determined by a radiometric scintillation proximity assay (SPA, GE Healthcare, Amersham Biosciences). Concentration dependent inhibition at 50% (IC50 μMol) was determined for all four isoforms […] and fold potency over beta, delta, and gamma relative to alpha was calculated for a selection of compounds in Table 2. Each compound has a p110 alpha IC50<1 μMol.

For experiment [2], the target named is human PI3K isoform delta (p110 delta) (Homo sapiens, UniProt O00329). In words: p110 isoform selectivity scintillation proximity assay (SPA), delta isoform. As to conditions: fold potency over delta relative to alpha, calculated from IC50 values (SPA). On the procedure: as §1, §2
human PI3K isoform delta (p110 delta), sequence (O00329 whole entry, canonical isoform): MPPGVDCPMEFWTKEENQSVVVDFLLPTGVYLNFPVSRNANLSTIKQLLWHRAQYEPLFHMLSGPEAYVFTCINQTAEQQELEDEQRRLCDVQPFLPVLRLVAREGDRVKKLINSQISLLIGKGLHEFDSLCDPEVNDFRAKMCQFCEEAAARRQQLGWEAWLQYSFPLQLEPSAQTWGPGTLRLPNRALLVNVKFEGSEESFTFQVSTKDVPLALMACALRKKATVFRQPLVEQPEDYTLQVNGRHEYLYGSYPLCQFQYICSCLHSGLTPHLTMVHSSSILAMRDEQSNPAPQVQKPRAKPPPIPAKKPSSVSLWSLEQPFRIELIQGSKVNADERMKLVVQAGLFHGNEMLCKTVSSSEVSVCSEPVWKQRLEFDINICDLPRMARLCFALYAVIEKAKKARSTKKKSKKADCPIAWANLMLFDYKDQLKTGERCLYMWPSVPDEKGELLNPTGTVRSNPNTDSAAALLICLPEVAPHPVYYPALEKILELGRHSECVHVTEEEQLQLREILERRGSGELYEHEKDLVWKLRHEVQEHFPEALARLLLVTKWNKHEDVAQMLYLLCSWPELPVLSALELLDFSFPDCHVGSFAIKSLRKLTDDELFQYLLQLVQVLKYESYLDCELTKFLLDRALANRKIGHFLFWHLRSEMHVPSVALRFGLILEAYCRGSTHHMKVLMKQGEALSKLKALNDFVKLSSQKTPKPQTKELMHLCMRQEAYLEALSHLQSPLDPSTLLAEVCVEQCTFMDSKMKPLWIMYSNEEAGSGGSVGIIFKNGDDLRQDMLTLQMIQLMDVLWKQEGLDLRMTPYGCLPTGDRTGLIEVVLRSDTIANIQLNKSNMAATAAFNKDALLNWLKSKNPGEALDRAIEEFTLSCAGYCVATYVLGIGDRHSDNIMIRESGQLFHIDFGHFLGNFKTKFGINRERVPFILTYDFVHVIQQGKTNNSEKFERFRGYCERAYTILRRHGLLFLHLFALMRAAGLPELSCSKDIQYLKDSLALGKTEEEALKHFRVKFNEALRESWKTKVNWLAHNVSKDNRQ
human PI3K isoform delta (p110 delta), sequence (P27986 whole entry partner, canonical isoform): as the sequence (P27986 whole entry partner, canonical isoform) above
For experiment [3], the target named is human PI3K isoform gamma (p110 gamma) (Homo sapiens, UniProt P48736). As to the kind of experiment: p110 isoform selectivity scintillation proximity assay (SPA), gamma isoform. As to conditions: fold potency over gamma relative to alpha, calculated from IC50 values (SPA). As to the method: as §1, §2
human PI3K isoform gamma (p110 gamma), sequence (P48736 whole entry, canonical isoform): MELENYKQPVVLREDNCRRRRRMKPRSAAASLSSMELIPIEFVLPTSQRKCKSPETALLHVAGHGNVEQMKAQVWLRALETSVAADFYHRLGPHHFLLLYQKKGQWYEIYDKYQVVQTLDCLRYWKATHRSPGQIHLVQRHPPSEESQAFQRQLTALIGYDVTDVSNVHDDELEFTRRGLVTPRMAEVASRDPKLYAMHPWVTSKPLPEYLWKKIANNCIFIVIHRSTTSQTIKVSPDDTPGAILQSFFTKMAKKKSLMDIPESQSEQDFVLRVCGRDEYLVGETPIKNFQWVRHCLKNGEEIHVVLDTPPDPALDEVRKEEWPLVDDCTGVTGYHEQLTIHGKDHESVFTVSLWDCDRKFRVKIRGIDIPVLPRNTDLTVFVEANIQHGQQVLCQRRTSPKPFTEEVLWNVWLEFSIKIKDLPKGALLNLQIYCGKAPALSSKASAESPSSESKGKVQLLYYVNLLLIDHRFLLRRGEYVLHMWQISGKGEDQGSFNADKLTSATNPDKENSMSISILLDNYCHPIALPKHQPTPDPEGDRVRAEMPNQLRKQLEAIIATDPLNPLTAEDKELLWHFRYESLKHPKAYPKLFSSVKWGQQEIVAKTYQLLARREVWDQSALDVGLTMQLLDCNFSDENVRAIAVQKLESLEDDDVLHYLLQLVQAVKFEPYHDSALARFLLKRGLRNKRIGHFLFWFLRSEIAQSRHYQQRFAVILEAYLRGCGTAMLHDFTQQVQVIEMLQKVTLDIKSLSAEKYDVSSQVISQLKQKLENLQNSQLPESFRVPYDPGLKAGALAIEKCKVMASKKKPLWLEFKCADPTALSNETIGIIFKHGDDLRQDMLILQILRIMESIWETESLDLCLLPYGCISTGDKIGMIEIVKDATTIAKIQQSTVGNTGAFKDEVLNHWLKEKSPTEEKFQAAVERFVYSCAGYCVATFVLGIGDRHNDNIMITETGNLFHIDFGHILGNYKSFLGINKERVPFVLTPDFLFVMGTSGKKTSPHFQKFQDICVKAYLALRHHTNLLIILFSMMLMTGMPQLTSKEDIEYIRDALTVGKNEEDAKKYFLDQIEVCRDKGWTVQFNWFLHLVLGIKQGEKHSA

With `CNC(=O)c1cccc(-c2cc3nc(-c4cccc5[nH]ncc45)nc(N4CCOCC4)c3s2)c1` [Compound 101, 3-(2-(1H-indazol-4-yl)-4-morpholinothieno[3,2-d]pyrimidin-6-yl)-N-methylbenzamide], the alpha/beta in experiment [1] is recorded as above 10. Also, the alpha/delta in experiment [2] is on record as below 10. For the same compound, the alpha/gamma in experiment [3] was above 10.

For the compound `OC1(c2cc3nc(-c4cccc5[nH]ncc45)nc(N4CCOCC4)c3s2)CCC1` [Compound 133, 1-(2-(1H-indazol-4-yl)-4-morpholinothieno[3,2-d]pyrimidin-6-yl)cyclobutanol], the alpha/beta in experiment [1] is below 10. The alpha/delta in experiment [2] is below 10. The alpha/gamma in experiment [3] is listed as above 10.

`NCC(=O)Nc1cccc(-c2cc3nc(-c4cccc5[nH]ncc45)nc(N4CCOCC4)c3s2)c1` [Compound 137, N-(3-(2-(1H-indazol-4-yl)-4-morpholinothieno[3,2-d]pyrimidin-6-yl)phenyl)-2-aminoacetamide]: the alpha/beta in experiment [1] is given as above 10. The alpha/delta in experiment [2] is given as below 10. In addition, the alpha/gamma in experiment [3] is below 10.

In the case of `CCNC(=O)c1cc2nc(-c3cccc4[nH]ncc34)nc(N3CCOCC3)c2s1` [Compound 170, N-ethyl-2-(1H-indazol-4-yl)-4-morpholinothieno[3,2-d]pyrimidine-6-carboxamide], the alpha/beta in experiment [1] is listed as below 10. In experiment [2], the alpha/delta is listed as below 10. The alpha/gamma in experiment [3] is below 10.

Regarding `O=C(NOCC1CC1)c1cc2nc(-c3cccc4[nH]ncc34)nc(N3CCOCC3)c2s1` [Compound 202, N-(cyclopropylmethoxy)-2-(1H-indazol-4-yl)-4-morpholinothieno[3,2-d]pyrimidine-6-carboxamide], the alpha/beta in experiment [1] is on record as below 10. In experiment [2], the alpha/delta is below 10. In addition, the alpha/gamma in experiment [3] is listed as above 10.

As for `c1cc(-c2nc(N3CCOCC3)c3sc(-c4cn[nH]c4)cc3n2)c2cn[nH]c2c1` [Compound 203, 2-(1H-indazol-4-yl)-4-morpholino-6-(1H-pyrazol-4-yl)thieno[3,2-d]pyrimidine], the alpha/beta in experiment [1] is on record as below 10. Besides, the alpha/delta in experiment [2] is reported as below 10. Besides, the alpha/gamma in experiment [3] is listed as above 10.

On to `C[C@H](O)CNCc1cc2nc(-c3cccc4[nH]ncc34)nc(N3CCOCC3)c2s1` [Compound 205, (S)-1-((2-(1H-indazol-4-yl)-4-morpholinothieno[3,2-d]pyrimidin-6-yl)methylamino)propan-2-ol], for which the alpha/beta in experiment [1] was below 10. In addition, the alpha/delta in experiment [2] is on record as below 10. Also, the alpha/gamma in experiment [3] was above 10.

In the case of `O=S(=O)(Nc1cccc(O)c1)c1cc2nc(-c3cccc4[nH]ncc34)nc(N3CCOCC3)c2s1` [Compound 208, 6-(3-hydroxyphenylaminosulfonyl)-2-(1H-indazol-4-yl)-4-morpholinothieno[3,2-d]pyrimidine], the alpha/beta in experiment [1] is given as above 10. The alpha/delta in experiment [2] is given as below 10. Besides, the alpha/gamma in experiment [3] is above 10.

As to `O=S(=O)(NCCN1CCCCC1)c1cc2nc(-c3cccc4[nH]ncc34)nc(N3CCOCC3)c2s1` [Compound 218, 6-(2-piperidinylethylaminosulfonyl)-2-(1H-indazol-4-yl)-4-morpholinothieno[3,2-d]pyrimidine], the alpha/beta in experiment [1] is on record as above 10. The alpha/delta in experiment [2] is listed as below 10. Also, in experiment [3], the alpha/gamma was above 10.

In the case of `OCCNc1cc2nc(-c3cccc4[nH]ncc34)nc(N3CCOCC3)c2s1` [Compound 226, 2-(2-(1H-indazol-4-yl)-4-morpholinothieno[3,2-d]pyrimidin-6-ylamino)ethanol], the alpha/beta in experiment [1] is listed as below 10. Further, the alpha/delta in experiment [2] is below 10. In experiment [3], the alpha/gamma is above 10.

In the case of `c1ccc(-c2cc3nc(-c4cccc5[nH]ncc45)nc(N4CCOCC4)c3o2)cc1` [Compound 233, 2-(1H-indazol-4-yl)-4-morpholino-6-phenylfuro[3,2-d]pyrimidine], the alpha/beta in experiment [1] is above 10. In experiment [2], the alpha/delta is given as below 10. Also, the alpha/gamma in experiment [3] was below 10.

Turning to `CC(C)(O)c1cc2nc(-c3cccc4[nH]ncc34)nc(N3CCOCC3)c2s1` [Compound 235, 2-(2-(1H-indazol-4-yl)-4-morpholinothieno[3,2-d]pyrimidin-6-yl)propan-2-ol], the alpha/beta in experiment [1] was above 10. In experiment [2], the alpha/delta is given as below 10. Further, in experiment [3], the alpha/gamma is above 10.

`OCc1cccc(-c2cc3nc(-c4cccc5[nH]ncc45)nc(N4CCOCC4)c3s2)c1` [Compound 237, (3-(2-(1H-indazol-4-yl)-4-morpholinothieno[3,2-d]pyrimidin-6-yl)phenyl)methanol]: in experiment [1], the alpha/beta is listed as above 10. In experiment [2], the alpha/delta is listed as below 10. In experiment [3], the alpha/gamma is reported as above 10.

With `CC(=O)Nc1cccc(-c2cc3nc(-c4cccc5[nH]ncc45)nc(N4CCOCC4)c3s2)c1` [Compound 238, N-(3-(2-(1H-indazol-4-yl)-4-morpholinothieno[3,2-d]pyrimidin-6-yl)phenyl)acetamide], in experiment [1], the alpha/beta is above 10. Moreover, the alpha/delta in experiment [2] is recorded as below 10. In addition, the alpha/gamma in experiment [3] is recorded as above 10.

With `O=C(NCCN1CCCCC1)c1cc2nc(-c3cccc4[nH]ncc34)nc(N3CCOCC3)c2s1` [Compound 257, 2-(1H-indazol-4-yl)-4-morpholino-N-(2-(piperidin-1-yl)ethyl)thieno[3,2-d]pyrimidine-6-carboxamide], in experiment [1], the alpha/beta is below 10. Also, the alpha/delta in experiment [2] is recorded as below 10. Moreover, in experiment [3], the alpha/gamma is above 10.

Consider `CN(C)C(=O)c1cc2nc(-c3cccc4[nH]ncc34)nc(N3CCOCC3)c2s1` [Compound 263, 2-(1H-indazol-4-yl)-N,N-dimethyl-4-morpholinothieno[3,2-d]pyrimidine-6-carboxamide], for which the alpha/beta in experiment [1] is reported as below 10. Besides, in experiment [2], the alpha/delta is below 10. Moreover, in experiment [3], the alpha/gamma was above 10.

With `CS(=O)(=O)c1cccc(-c2cc3nc(-c4cccc5[nH]ncc45)nc(N4CCOCC4)c3s2)c1` [Compound 265, 2-(1H-indazol-4-yl)-6-(3-(methylsulfonyl)phenyl)-4-morpholinothieno[3,2-d]pyrimidine], in experiment [1], the alpha/beta is on record as above 10. Besides, the alpha/delta in experiment [2] was below 10. Further, the alpha/gamma in experiment [3] was above 10.

Consider `CN(C)Cc1cc2nc(-c3cccc4[nH]ncc34)nc(N3CCOCC3)c2s1` [Compound 304, (2-(1H-indazol-4-yl)-4-morpholinothieno[3,2-d]pyrimidin-6-yl)-N,N-dimethylmethanamine], for which the alpha/beta in experiment [1] is given as 10. Besides, in experiment [2], the alpha/delta was below 10. In addition, in experiment [3], the alpha/gamma is recorded as above 10.

For `O=C(NCc1cc2nc(-c3cccc4[nH]ncc34)nc(N3CCOCC3)c2s1)N1CCOCC1` [Compound 305, N-((2-(1H-indazol-4-yl)-4-morpholinothieno[3,2-d]pyrimidin-6-yl)methyl)morpholine-4-carboxamide], the alpha/beta in experiment [1] is below 10. The alpha/delta in experiment [2] is below 10. Besides, the alpha/gamma in experiment [3] is listed as above 10.

Consider `c1cc(-c2nc(N3CCOCC3)c3sc(Cn4ccnc4)cc3n2)c2cn[nH]c2c1` [Compound 312, 6-((1H-imidazol-1-yl)methyl)-2-(1H-indazol-4-yl)-4-morpholinothieno[3,2-d]pyrimidine], for which the alpha/beta in experiment [1] was below 10. Further, the alpha/delta in experiment [2] was below 10. The alpha/gamma in experiment [3] is above 10.

Regarding `COC/C=C/c1cc2nc(-c3cccc4[nH]ncc34)nc(N3CCOCC3)c2s1` [Compound 334], the alpha/beta in experiment [1] is above 10. The alpha/delta in experiment [2] is below 10. Further, in experiment [3], the alpha/gamma is above 10.

As for `C[C@H](O)CNC(=O)c1cccc(-c2cc3nc(-c4cccc5[nH]ncc45)nc(N4CCOCC4)c3s2)c1` [Compound 336, 3-(2-(1H-indazol-4-yl)-4-morpholinothieno[3,2-d]pyrimidin-6-yl)-N-((S)-2-hydroxypropyl)benzamide], in experiment [1], the alpha/beta is given as above 10. In addition, the alpha/delta in experiment [2] is below 10. Also, the alpha/gamma in experiment [3] is on record as above 10.

`O=C(O)c1cccc(-c2cc3nc(-c4cccc5[nH]ncc45)nc(N4CCOCC4)c3s2)c1` [Compound 338, 3-(2-(1H-indazol-4-yl)-4-morpholinothieno[3,2-d]pyrimidin-6-yl)benzoic acid]: in experiment [1], the alpha/beta is listed as above 10. In experiment [2], the alpha/delta is reported as below 10. Also, in experiment [3], the alpha/gamma was above 10.

In the case of `CS(=O)(=O)N1CCC(C(O)c2cc3nc(-c4cccc5[nH]ncc45)nc(N4CCOCC4)c3s2)CC1` (stereo not drawn) [Compound 353, (2-(1H-indazol-4-yl)-4-morpholinothieno[3,2-d]pyrimidin-6-yl)(4-N-methylsulfonylpiperidin-4-yl)methanol], the alpha/beta in experiment [1] is below 10. In experiment [2], the alpha/delta is recorded as below 10. For the same compound, the alpha/gamma in experiment [3] was above 10.

Take `Cc1c(-c2cccc(S(C)(=O)=O)c2)sc2c(N3CCOCC3)nc(-c3cccc4[nH]ncc34)nc12` [Compound 360, 2-(1H-indazol-4-yl)-7-methyl-6-(3-(methylsulfonyl)phenyl)-4-morpholinothieno[3,2-d]pyrimidine]: in experiment [1], the alpha/beta is reported as above 10. The alpha/delta in experiment [2] is reported as above 10. The alpha/gamma in experiment [3] is recorded as above 10.
